Earlier results, collected in patent publication US6423847B1, “Synthesis and clinical uses of D,α-tocopherol nicotinate compounds” (Chronorx, LLC, priority 1999, dated 2002).
Where two headings read alike, the source gives them in different places.

Tests used:
[1] = laboratory mice
[2] = system: exogenous glucose utilization by the heart; settings: normal volunteers, 18F-fluorodeoxyglucose PET
[3] = system: liver NAD+; poly(ADP-ribose)
[4] = system: human aortic endothelial cells; settings: human aortic endothelial cells pre-incubated with vitamin E, oxidative stress; increased from 37%
[5] = system: glutathione peroxidase (GSHPx); settings: following supplementation with DAT
[6] = system: malonyldialdehyde and superoxide anion levels; settings: 400 mg once a day, orally for 4 weeks

O=C(O)c1cccnc1 [Nicotinic acid, nicotinic acid]
increase in Zn+2 absorption ([1]; fasting states): 38.9%
increase in Zn+2 absorption ([1]; postprandial conditions): 70.9%
increase in exogenous glucose utilization by the heart [2]: two- to three-fold increase

NC(=O)c1cccnc1 [nicotinamide]
liver polyADP-ribose ([3]; above control groups): significantly elevates
liver NAD+ ([3]; at 1000 mg/kg): elevations

Cc1c(C)c2c(c(C)c1O)CC[C@@](C)(CCC[C@H](C)CCC[C@H](C)CCCC(C)C)O2 [vitamin E, D,α-tocopherol]
cell viability [4]: 85%
glutathione peroxidase (GSHPx) activities [5]: increase as much as twofold
malonyldialdehyde levels [6]: significantly reduces
superoxide anion levels [6]: significantly reduces
